Experimental data published in EP0844879B1, “PHARMACEUTICAL CO[…] D[…] IN […] IMMUNE RESPONSE” (LA[…] SPINDLER, priority 1995, dated 1996).
Entries after “also recorded” stand apart in the source; their conditions may differ.

System: vaccin monovalent de la grippe (vaccin NIB16, souche A) (HA)
Experiment: Immunisation of mice with monovalent influenza vaccine, steroid as adjuvant; total anti-HA IgG in serum by enzyme immunoassay
Assay type: in vivo, souris BALB/C
Settings: aged mice compared with young mice; steroid given with HA
Experimental: Un protocole d'immunisation contre le vaccin monovalent de la grippe (vaccin NIB16, souche A) (HA), est utilisé pour tester l'effet adjuvant du dérivé 3β-palmitoyl de la 7αOH-DHEA mis en solution à 10 mg/ml dans le DMSO.
Trois lots de 5 souris BALB/C âgées de 6 semaines (jeunes) et trois lots de 5 souris BALB/C âgées de 90 semaines (âgées) subissent le premier jour une injection sous-cutanée de 0,5 ml de sérum physiologique contenant : • soit 8 µg de HA + 1,8 µmole (0,78 mg/kg) de 3β-palmitoyl-7αOH-DHEA (lot 1) • soit 8 µg de HA + 1,8 µmole (0,56 mg/kg) de 7αOH-DHEA (lot 2) • soit 8 µg de HA (lot 3) Après 28 jours, chaque souris de chaque lot subit un rappel, les injections décrites étant répétées pour chaque lot. Après 38 jours, chaque souris de chaque lot est sacrifiée et le sang prélevé. Les IgG totales anti-HA sont mesurées dans chaque sérum par une méthode immunoenzymatique. […] Tableau 1

CCCCCCCCCCCCCCCC(=O)O[C@H]1CC[C@@]2(C)C(=C[C@@H](O)[C@@H]3[C@@H]2CC[C@]2(C)C(=O)CC[C@@H]32)C1 [3β-palmitoyl-7αOH-DHEA]
réponse immunitaire des souris âgées (result in words): rétablit la réponse immunitaire des souris âgées à un niveau proche de celui des souris jeunes; also recorded: a un effet sur la réponse immunitaire des souris âgées comparable à celui obtenu chez les souris jeunes

C[C@]12CC[C@H](O)CC1=C[C@@H](O)[C@@H]1[C@@H]2CC[C@]2(C)C(=O)CC[C@@H]12 [7αOH-DHEA, reference compound]
réponse immunitaire des souris âgées (result in words): cette réponse n'est pas obtenue
